# Assay results from PubChem BioAssay (NCI).
#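 Test compounds were applied to cells in 96-well plates for 48 hours at 5 doses. TGI: concentration producing complete growth inhibition.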
# Assays:
# Assay in all cases: DTP human tumour cell line panel, 48 h
# [1] = system: A498 renal
# [2] = system: ACHN renal
# [3] = system: HCC-2998 colon
# [4] = system: HCT-15 colon
# [5] = system: HOP-62 NSCLC
# [6] = system: K-562 leukemia
# [7] = system: KM12 colon
# [8] = system: SK-MEL-2 melanoma
# [9] = system: SR leukemia
# [10] = system: SW-620 colon
# [11] = system: CAKI-1 renal
SMILES,TGI [1] [µM],TGI [2] [µM],TGI [3] [µM],TGI [4] [µM],TGI [5] [µM],TGI [6] [µM],TGI [7] [µM],TGI [8] [µM],TGI [9] [µM],TGI [10] [µM],TGI [11] [µM]
CCC(=O)O[C@H]1CC[C@H]2[C@@H]3CCC4=C/C(=N/NC(=O)c5cccc6c(=O)c7ccccc7[nH]c56)CC[C@]4(C)[C@H]3CC[C@]12C,> 25,> 25,> 25,> 25,> 25,> 25,> 25,> 25,> 25,> 25,–
Cn1c2ccccc2c(=NNc2ccc(C(=O)O)cc2)c2ccccc21,–,45.6,24.9,38.9,56.2,23.3,50.3,40.7,42.7,65.3,63.4
N#Cc1ccc(OCc2nc3cc(C(F)(F)F)ccc3nc2-c2ccccc2)cc1,> 100,> 100,> 100,–,> 100,–,> 100,> 100,> 100,> 100,> 100
Cc1c(NC(=S)Nc2ccc(Cl)cc2)c(=O)n(-c2ccccc2)n1C,> 100,> 100,> 100,> 100,> 100,> 100,> 100,–,> 100,> 100,> 100
COc1cc(COC(=O)N2CCC2C(=O)O)c([N+](=O)[O-])cc1OC (stereo unspecified),> 100,> 100,> 100,> 100,> 100,> 100,> 100,–,> 100,> 100,–
O=S1C2=C(Cc3ccccc3)C(Cc3ccccc3)=C1CCc1cccc(c1)CC2,–,30.8,27.5,30.5,–,> 100,26.7,31.1,90.2,77.9,28.7
COC(=O)CCC12CCC(O1)c1ccccc12 (stereo unspecified),> 100,> 100,> 100,> 100,> 100,> 100,> 100,–,> 100,> 100,> 100
c1cc2c(c(-c3c4ccccc4nc4ccccc34)c1)CC1(CC2)OCCO1,> 100,> 100,> 100,> 100,> 100,> 100,> 100,> 100,–,> 100,> 100
S=C1N=C(Cl)C2(NN1)c1ccccc1-c1ccccc12,> 10,–,> 10,> 10,> 10,> 10,> 10,–,> 10,> 10,> 10
CCC1C(c2cc(OC)c(OC)c(OC)c2)c2cc3c(cc2OC1N1CCOCC1)OCO3 (stereo unspecified),–,16.1,–,> 100,20.6,–,–,> 100,> 100,10.3,–
CC1(C)CC(=O)c2c(nc3ccc4ccccc4c3c2-c2ccc(NC(=O)CCC(=O)Nc3ccc(-c4c5c(nc6ccc7ccccc7c46)CC(C)(C)CC5=O)cc3)cc2)C1,–,> 100,–,–,> 100,> 100,> 100,> 100,> 100,> 100,> 100
CCCCOC(=O)C(O)Cc1ccoc1 (stereo unspecified),> 100,> 100,> 100,> 100,> 100,> 100,> 100,> 100,–,> 100,–
CN(C)c1ccc(N=Nc2ccccn2)cc1,94.7,> 100,59.7,> 100,> 100,> 100,> 100,> 100,–,> 100,> 100
CN1CN(c2ccccc2)C2(CCN(CCc3csc4ccccc34)CC2)C1=O,–,–,–,51.5,26.4,40.1,25.9,–,80.6,39.3,30.1
C[C@H](O)C1CC(Cn2nnc3c(N)ncnc32)C1(C)C (stereo partly specified),> 100,> 100,> 100,> 100,> 100,0.0411,> 100,> 100,–,> 100,> 100
Cc1cccc(NC(=S)Nc2ccccc2Cl)n1,64.6,–,–,> 100,46.2,> 100,79.4,> 100,> 100,> 100,96.4
COC(=O)c1cc(C#Cc2cc(OC)ccc2OC)ccc1OC,–,> 100,> 100,> 100,–,> 100,> 100,> 100,> 100,> 100,> 100
Cc1cn(Cc2ccccc2CCl)c(=O)[nH]c1=O,–,27.1,28.8,31.7,35.3,56,37.4,33.8,–,34.1,24.8
COc1cc2c(c(OC)c1OC)-c1ccc(SC)cc1[C@H](OC(=O)c1ccccc1)CC2,–,> 100,11.7,> 40.6,> 100,> 100,> 100,> 100,> 100,> 100,> 100
O=[N+]([O-])c1cn[n+]([O-])c2ccccc12,40.1,3.83,3.44,8.52,26.2,–,18.4,–,–,4.91,8.1
CCOC(=O)CCC(NC(=O)c1ccc(N2CCN(c3c(C)nc(N)nc3N)CC2)cc1)C(=O)OCC (stereo unspecified),> 100,> 100,> 100,> 100,> 100,0.844,> 100,> 100,–,> 100,> 100
CC(=O)Nc1ccc2[nH]c(-c3cccc(F)c3)cc(=O)c2c1,> 59.8,> 100,23,> 100,> 48.4,–,> 100,[…],> 100,> 100,> 100
COc1ccc2c(c1)c1c(n2CCN2CCCCC2)-c2ccccc2CC1,–,33.3,20.7,24.5,34.7,45.9,27.3,29.3,42.4,37.8,26.9
